Test results as given in PubChem BioAssay (NCI).
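Five concentrations, 48 hours, 96-well plates. Abbreviation: GI50, concentration required for 50% inhibition of growth. TGI denotes the concentration required for complete inhibition of growth.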

Legend:
Test in all cases: growth of human tumour cells (NCI), 48 h
786-0 renal = tested on: 786-0 renal
A498 renal = tested on: A498 renal
A549 NSCLC = tested on: A549 NSCLC
ACHN renal = tested on: ACHN renal
CAKI-1 renal = tested on: CAKI-1 renal
CCRF-CEM leukemia = tested on: CCRF-CEM leukemia
COLO 205 colon = tested on: COLO 205 colon
DU-145 prostate = tested on: DU-145 prostate
EKVX NSCLC = tested on: EKVX NSCLC
HCT-116 colon = tested on: HCT-116 colon
HCT-15 colon = tested on: HCT-15 colon
HL-60(TB) leukemia = tested on: HL-60(TB) leukemia
HOP-92 NSCLC = tested on: HOP-92 NSCLC
HT29 colon = tested on: HT29 colon
IGROV1 ovarian = tested on: IGROV1 ovarian
K-562 leukemia = tested on: K-562 leukemia
KM12 colon = tested on: KM12 colon
LOX IMVI melanoma = tested on: LOX IMVI melanoma
M14 melanoma = tested on: M14 melanoma
MCF7 breast = tested on: MCF7 breast
MDA-MB-231 breast = tested on: MDA-MB-231 breast
MDA-MB-435 = tested on: MDA-MB-435
MDA-N = tested on: MDA-N
MOLT-4 leukemia = tested on: MOLT-4 leukemia
NCI-H226 lung = tested on: NCI-H226 lung
NCI-H460 lung = tested on: NCI-H460 lung
NCI/ADR-RES ovarian = tested on: NCI/ADR-RES ovarian
OVCAR-3 ovarian = tested on: OVCAR-3 ovarian
OVCAR-4 ovarian = tested on: OVCAR-4 ovarian
OVCAR-5 ovarian = tested on: OVCAR-5 ovarian
OVCAR-8 ovarian = tested on: OVCAR-8 ovarian
RXF 393 renal = tested on: RXF 393 renal
SF-295 CNS = tested on: SF-295 CNS
SF-539 CNS = tested on: SF-539 CNS
SK-MEL-2 melanoma = tested on: SK-MEL-2 melanoma
SK-MEL-28 melanoma = tested on: SK-MEL-28 melanoma
SK-MEL-5 melanoma = tested on: SK-MEL-5 melanoma
SK-OV-3 ovarian = tested on: SK-OV-3 ovarian
SN12C renal = tested on: SN12C renal
SNB-19 CNS = tested on: SNB-19 CNS
SNB-75 CNS = tested on: SNB-75 CNS
SR leukemia = tested on: SR leukemia
SW-620 colon = tested on: SW-620 colon
TK-10 renal = tested on: TK-10 renal
U251 CNS = tested on: U251 CNS
UACC-257 melanoma = tested on: UACC-257 melanoma
UACC-62 melanoma = tested on: UACC-62 melanoma
UO-31 renal = tested on: UO-31 renal
BT-549 breast = tested on: BT-549 breast
HCC-2998 colon = tested on: HCC-2998 colon
HOP-62 NSCLC = tested on: HOP-62 NSCLC
HS 578T breast = tested on: HS 578T breast
MALME-3M melanoma = tested on: MALME-3M melanoma
NCI-H23 lung = tested on: NCI-H23 lung
NCI-H522 lung = tested on: NCI-H522 lung
PC-3 prostate = tested on: PC-3 prostate
RPMI-8226 leukemia = tested on: RPMI-8226 leukemia
SF-268 CNS = tested on: SF-268 CNS
T-47D breast = tested on: T-47D breast

## CC12C3C4C1C1C2C3C41CO (stereo unspecified)
786-0 renal
  TGI: > 100 µM
A498 renal
  TGI: > 100 µM
A549 NSCLC
  TGI: > 100 µM
ACHN renal
  TGI: > 100 µM
CAKI-1 renal
  TGI: > 100 µM
CCRF-CEM leukemia
  TGI: > 100 µM
COLO 205 colon
  TGI: > 100 µM
DU-145 prostate
  TGI: > 100 µM
EKVX NSCLC
  TGI: > 100 µM
HCT-116 colon
  TGI: > 100 µM
HCT-15 colon
  TGI: > 100 µM
HL-60(TB) leukemia
  TGI: > 100 µM
HOP-92 NSCLC
  TGI: > 100 µM
HT29 colon
  TGI: > 100 µM
IGROV1 ovarian
  TGI: > 100 µM
K-562 leukemia
  TGI: > 100 µM
KM12 colon
  TGI: > 100 µM
LOX IMVI melanoma
  TGI: > 100 µM
M14 melanoma
  TGI: > 100 µM
MCF7 breast
  TGI: > 100 µM
MDA-MB-231 breast
  TGI: > 100 µM
MDA-MB-435
  TGI: > 100 µM
MDA-N
  TGI: > 100 µM
MOLT-4 leukemia
  TGI: > 100 µM
NCI-H226 lung
  TGI: > 100 µM
NCI-H460 lung
  TGI: > 100 µM
NCI/ADR-RES ovarian
  TGI: > 100 µM
OVCAR-3 ovarian
  TGI: > 100 µM
OVCAR-4 ovarian
  TGI: > 100 µM
OVCAR-5 ovarian
  TGI: > 100 µM
OVCAR-8 ovarian
  TGI: > 100 µM
RXF 393 renal
  TGI: > 100 µM
SF-295 CNS
  TGI: > 100 µM
SF-539 CNS
  TGI: > 100 µM
SK-MEL-2 melanoma
  TGI: > 100 µM
SK-MEL-28 melanoma
  TGI: > 100 µM
SK-MEL-5 melanoma
  TGI: > 100 µM
SK-OV-3 ovarian
  TGI: > 100 µM
SN12C renal
  TGI: > 100 µM
SNB-19 CNS
  TGI: > 100 µM
SNB-75 CNS
  TGI: > 100 µM
SR leukemia
  TGI: > 100 µM
SW-620 colon
  TGI: > 100 µM
TK-10 renal
  TGI: > 100 µM
U251 CNS
  TGI: > 100 µM
UACC-257 melanoma
  TGI: > 100 µM
UACC-62 melanoma
  TGI: > 100 µM
UO-31 renal
  TGI: > 100 µM

## CN(CCCCCl)P(=O)(OCCS(=O)(=O)CC(NC(=O)CCC(N)C(=O)O)C(=O)NC(C(=O)O)c1ccccc1)OCC1OC(n2ccc(N)nc2=O)C(O)C1O (stereo unspecified)
786-0 renal
  GI50: 32.2 µM
  TGI: > 75 µM
A498 renal
  GI50: > 55.1 µM
  TGI: > 75 µM
A549 NSCLC
  GI50: 4.45 µM
  TGI: > 75 µM
ACHN renal
  GI50: 16.7 µM
  TGI: > 75 µM
BT-549 breast
  GI50: 48.7 µM
  TGI: > 75 µM
CAKI-1 renal
  GI50: 11 µM
  TGI: > 75 µM
CCRF-CEM leukemia
  GI50: 0.632 µM
  TGI: > 75 µM
COLO 205 colon
  GI50: 22 µM
  TGI: > 75 µM
DU-145 prostate
  GI50: 9.1 µM
  TGI: > 75 µM
EKVX NSCLC
  GI50: 67.4 µM
  TGI: > 75 µM
HCC-2998 colon
  GI50: 28 µM
  TGI: > 75 µM
HCT-116 colon
  GI50: 5.22 µM
  TGI: > 75 µM
HCT-15 colon
  GI50: > 75 µM
  TGI: > 75 µM
HL-60(TB) leukemia
  GI50: 2.84 µM
  TGI: > 30.3 µM
HOP-62 NSCLC
  GI50: 33.7 µM
  TGI: > 75 µM
HOP-92 NSCLC
  GI50: 4.8 µM
  TGI: 74.1 µM
HS 578T breast
  GI50: > 36.8 µM
  TGI: > 75 µM
HT29 colon
  GI50: 32.2 µM
  TGI: > 75 µM
IGROV1 ovarian
  GI50: 3.31 µM
  TGI: > 47.3 µM
K-562 leukemia
  GI50: 7.36 µM
  TGI: > 75 µM
KM12 colon
  GI50: 27.4 µM
  TGI: > 75 µM
LOX IMVI melanoma
  GI50: 45.5 µM
  TGI: > 75 µM
M14 melanoma
  GI50: 4.37 µM
  TGI: > 75 µM
MALME-3M melanoma
  GI50: 12.6 µM
  TGI: > 75 µM
MCF7 breast
  GI50: 3.27 µM
  TGI: > 75 µM
MDA-MB-231 breast
  GI50: > 75 µM
  TGI: > 75 µM
MDA-MB-435
  GI50: 28.3 µM
  TGI: > 75 µM
MOLT-4 leukemia
  GI50: 0.851 µM
  TGI: > 31.8 µM
NCI-H226 lung
  GI50: > 70.7 µM
  TGI: > 75 µM
NCI-H23 lung
  GI50: 22.6 µM
  TGI: > 75 µM
NCI-H460 lung
  GI50: 6.4 µM
  TGI: > 75 µM
NCI-H522 lung
  GI50: 10.5 µM
  TGI: > 75 µM
NCI/ADR-RES ovarian
  GI50: 17.8 µM
  TGI: > 75 µM
OVCAR-3 ovarian
  GI50: 33.7 µM
  TGI: > 75 µM
OVCAR-4 ovarian
  GI50: 47.5 µM
  TGI: > 75 µM
OVCAR-5 ovarian
  GI50: > 26.1 µM
  TGI: > 75 µM
OVCAR-8 ovarian
  GI50: 5.4 µM
  TGI: > 75 µM
PC-3 prostate
  GI50: 2.26 µM
  TGI: > 75 µM
RPMI-8226 leukemia
  GI50: 14.7 µM
  TGI: > 68.8 µM
RXF 393 renal
  GI50: > 75 µM
  TGI: > 75 µM
SF-268 CNS
  GI50: 49.8 µM
  TGI: > 75 µM
SF-295 CNS
  GI50: > 58.8 µM
  TGI: > 75 µM
SF-539 CNS
  GI50: > 75 µM
  TGI: > 75 µM
SK-MEL-2 melanoma
  GI50: > 75 µM
  TGI: > 75 µM
SK-MEL-28 melanoma
  GI50: 26.2 µM
  TGI: > 75 µM
SK-MEL-5 melanoma
  GI50: 20.4 µM
  TGI: > 75 µM
SK-OV-3 ovarian
  GI50: 57.1 µM
  TGI: > 75 µM
SN12C renal
  GI50: > 60 µM
  TGI: > 75 µM
SNB-19 CNS
  GI50: 45.8 µM
  TGI: > 75 µM
SNB-75 CNS
  GI50: 40.4 µM
  TGI: 74.6 µM
SR leukemia
  GI50: 1.39 µM
  TGI: > 51.2 µM
SW-620 colon
  GI50: > 44.9 µM
  TGI: > 75 µM
T-47D breast
  GI50: 23.1 µM
  TGI: > 75 µM
TK-10 renal
  GI50: 73.4 µM
  TGI: > 75 µM
U251 CNS
  GI50: 29.9 µM
  TGI: > 75 µM
UACC-257 melanoma
  GI50: 21.1 µM
  TGI: > 69.8 µM
UACC-62 melanoma
  GI50: 35.8 µM
  TGI: > 75 µM
UO-31 renal
  GI50: 8.17 µM
  TGI: > 59.7 µM

## COC(=O)C1CCC(=O)N1C(c1cc(OC)c(OC)c(OC)c1)c1cc(OC)c(OC)c(OC)c1 (stereo unspecified)
786-0 renal
  TGI: > 100 µM
A498 renal
  TGI: > 100 µM
A549 NSCLC
  TGI: > 100 µM
ACHN renal
  TGI: > 100 µM
DU-145 prostate
  TGI: > 100 µM
EKVX NSCLC
  TGI: > 100 µM
HCT-116 colon
  TGI: > 100 µM
HCT-15 colon
  TGI: > 100 µM
HL-60(TB) leukemia
  TGI: > 100 µM
HOP-62 NSCLC
  TGI: > 100 µM
HOP-92 NSCLC
  TGI: > 100 µM
HS 578T breast
  TGI: > 100 µM
HT29 colon
  TGI: > 100 µM
IGROV1 ovarian
  TGI: > 100 µM
K-562 leukemia
  TGI: > 100 µM
KM12 colon
  TGI: > 100 µM
LOX IMVI melanoma
  TGI: > 100 µM
M14 melanoma
  TGI: > 100 µM
MCF7 breast
  TGI: > 100 µM
MDA-MB-231 breast
  TGI: > 100 µM
MDA-MB-435
  TGI: > 100 µM
MDA-N
  TGI: > 100 µM
MOLT-4 leukemia
  TGI: > 100 µM
NCI-H460 lung
  TGI: > 100 µM
NCI-H522 lung
  TGI: > 100 µM
OVCAR-3 ovarian
  TGI: > 100 µM
OVCAR-5 ovarian
  TGI: > 100 µM
OVCAR-8 ovarian
  TGI: > 100 µM
PC-3 prostate
  TGI: > 100 µM
RPMI-8226 leukemia
  TGI: > 100 µM
SF-268 CNS
  TGI: > 100 µM
SF-295 CNS
  TGI: > 100 µM
SF-539 CNS
  TGI: > 100 µM
SK-MEL-2 melanoma
  TGI: > 100 µM
SK-MEL-28 melanoma
  TGI: > 100 µM
SK-OV-3 ovarian
  TGI: > 100 µM
SN12C renal
  TGI: > 100 µM
SNB-19 CNS
  TGI: > 100 µM
SNB-75 CNS
  TGI: > 100 µM
SR leukemia
  TGI: > 100 µM
SW-620 colon
  TGI: > 100 µM
T-47D breast
  TGI: > 100 µM
TK-10 renal
  TGI: > 100 µM
U251 CNS
  TGI: > 100 µM
UACC-257 melanoma
  TGI: > 100 µM
UACC-62 melanoma
  TGI: > 100 µM
UO-31 renal
  TGI: > 100 µM
